What was measured:
Renca (renal cancer) = assay: In vivo efficacy, Renca syngeneic model; parameters: species or system mouse; details: data not shown
Procedure: (§1) A program of in vivo efficacy studies was performed to assess the activity of SRA737 in combination with genotoxic chemotherapy and targeted agents, and as monotherapy.
(§2) One of these models also carried a MYCN amplification. A fourth HGSOC PDX model with partial resistance to PARPi was also sensitive to high dose SRA737 monotherapy.

CYP1A2 = CYP1A2 induction in vitro; type: in vitro ADME; details: positive control omeprazole, concentration dependent
[1] = Excretion in urine and feces, rats; type: in vivo; details: rat; over 24 hours
Procedure: The excretion of SRA737 has been studied in mice and rats administered SRA737 at either 5 mg/kg IV or 10 mg/kg orally. Urine and feces were collected for a 24-hour period after dosing. In mice, renal excretion of intact SRA737 was consistently low (less than 10% of dose) after both oral and IV administration. Following IV administration of SRA737, less than 8% of the dose was recovered as intact drug in the feces while after oral administration this figure was less than 3%. Excretion of intact SRA737 was lower in the rat than in the mouse with <1% of dose excreted renally over 24 hours and less than 1.5% of dose excreted into the feces over 24 hours.

[2] = Plasma protein binding, ultracentrifugation, minipig; type: in vitro ADME; details: for Percentage Bound / Percentage Free: Minipig plasma
Procedure: (§3) The PK of SRA737 have been determined in the mouse, rat, dog and monkey following oral and IV administration (Table 3). […] An acceptable terminal elimination t1/2 was also observed in each species. […] The plasma protein binding of SRA737 at 1 and 10 μM was examined in mouse, minipig, monkey and human plasma using ultracentrifugation and in dog plasma (10 μM) using rapid equilibrium dialysis.

[3] = tested on: HGSOC PDX models harboring CCNE1 amplifications accompanied by TP53 mutations; assay: In vivo efficacy, HGSOC PDX models with CCNE1 amplifications; parameters: species or system mouse; details: single agent; several models; data not shown
Procedure: as §1, §2

[4] = Plasma protein binding, ultracentrifugation, monkey; type: in vitro ADME; details: for Percentage Bound / Percentage Free: Monkey plasma
Procedure: as §3

[5] = tested on: cryopreserved hepatocytes; assay: Rank order of stability in cryopreserved hepatocytes across species; type: in vitro ADME, human, mouse, rat, dog, minipig and monkey; details: 10 μM, up to 4 hours
Procedure: The formation of SRA737-related metabolites was determined in cryopreserved hepatocytes from human, mouse, rat, dog, minipig and monkey samples after incubation with SRA737 at a nominal concentration of 10 μM for up to 4 hours. […] In the human hepatocyte preparation, approximately 67% of the parent remained after 4 hours of incubation compared to 75% and 7% in the rat and minipig preparations, respectively. Eight human SRA737 metabolites were observed. All SRA737 metabolites formed by human hepatocytes were also formed by monkey hepatocytes. Six metabolites were present at equal or greater abundance in the monkey.

[6] = mouse, in vivo, po
[7] = Plasma protein binding, rapid equilibrium dialysis, dog; type: in vitro ADME; details: 10 μM
Procedure: as §3

Single dose PK, monkey = type: in vivo
Procedure: as §3

[8] = GLP 28-day repeat oral dose toxicity and toxicokinetics, mouse
[9] = in vivo, Monkey IV 1 mg/kg single dose
[10] = in vivo, Monkey oral 2 mg/kg single dose
[11] = in vivo, Monkey oral 10 mg/kg single dose
[12] = female, mouse, in vivo, po, 10 mg/kg/day
[13] = female, mouse, in vivo, po, 40 mg/kg/day
[14] = female, mouse, in vivo, po, 75 mg/kg/day
[15] = male, mouse, in vivo, po, 10 mg/kg/day
[16] = male, mouse, in vivo, po, 40 mg/kg/day
[17] = male, mouse, in vivo, po, 75 mg/kg/day

In the case of `N#Cc1cnc(Nc2cc(NCC3CNCCO3)c(C(F)(F)F)cn2)cn1` (stereo not drawn) [SRA737, 5-[[4-[[morpholin-2-yl]methylamino]-5-(trifluoromethyl)-2-pyridyl]amino]pyrazine-2-carbonitrile], the single agent efficacy (Renca (renal cancer)) is reported as “single agent efficacy”, the “induction of CYP1A2” value (CYP1A2) is reported as under 10 % positive control and the “intact SRA737 excreted into the feces” value [1] is reported as “less than 1.5 % of dose”. The “intact SRA737 excreted renally” value [1] was < 1 % of dose, the “Percentage Bound” value ([2]; 1 μM) was 85.2% and the “Percentage Free” value ([2]; 1 μM) was 14.9%. The “Percentage Bound” value ([2]; 10 μM) was 75.5%, the “Percentage Free” value ([2]; 10 μM) was 24.5% and the fraction unbound ([2]; plasma, minipig, summary of 1 and 10 μM) was about 0.2. For the same compound, the antitumor activity [3] was “Significant antitumor activity”, the “Percentage Bound” value ([4]; 1 μM) was 88.8% and the “Percentage Free” value ([4]; 1 μM) was 11.2%. For the same compound, the “Percentage Bound” value ([4]; 10 μM) was 85.8%, the “Percentage Free” value ([4]; 10 μM) was 14.2% and the fraction unbound ([4]; plasma, monkey, summary of 1 and 10 μM) was 0.13. The “rank order of stability from most stable to least stable” value [5] was “rat≈mouse>monkey≈human>>dog>>minipig”, the MTD [6] was 225 mg/m^2/day and the “Percentage Bound” value [7] was 68.8%. For the same compound, the “Percentage Free” value [7] was 31.2%, the Foral (Single dose PK, monkey; Monkey oral 2 mg/kg single dose) was 90% and the Foral (Single dose PK, monkey; Monkey oral 10 mg/kg single dose) was 104%. It also gave an AUC(0-t) (Single dose PK, monkey; [9]) of 1520 ng·h/mL, a half-life (Single dose PK, monkey; [9]) of 5.3 h and an AUC(0-t) (Single dose PK, monkey; [10]) of 2730 ng·h/mL. For the same compound, the Cmax (Single dose PK, monkey; [10]) was 500 ng/mL, the Tmax (Single dose PK, monkey; [10]) was 1 to 2 h and the half-life (Single dose PK, monkey; [10]) was 5 h. For the same compound, the AUC(0-t) (Single dose PK, monkey; [11]) was 15800 ng·h/mL, the Cmax (Single dose PK, monkey; [11]) was 2640 ng/mL and the Tmax (Single dose PK, monkey; [11]) was 2 to 4 h. For the same compound, the half-life (Single dose PK, monkey; [11]) was 5.1 h, the bioavailability (Single dose PK, monkey; in vivo, monkey, oral 2 and 10 mg/kg, read-out: absolute oral bioavailability (% F)) was 90 to 104% and the AUC(0-t) [8, 12] was 3610 ng·h/mL. The Cmax [8, 12] was 918 ng/mL, the half-life [8, 12] was 5.18 h and the AUC(0-t) [8, 13] was 24800 ng·h/mL. It also gave a Cmax at 28 days [8, 13] of 2350 ng/mL, a half-life [8, 13] of 5.09 h and an AUC(0-t) [8, 14] of 45500 ng·h/mL. For the same compound, the Cmax [8, 14] was 4030 ng/mL, the half-life [8, 14] was 6.96 h and the AUC(0-t) [8, 15] was 4410 ng·h/mL. It also gave a Cmax [8, 15] of 903 ng/mL, an AUC(0-t) [8, 16] of 34300 ng·h/mL and a Cmax at 28 days [8, 16] of 3250 ng/mL. It also gave a half-life [8, 16] of 6.22 h, an AUC(0-t) [8, 17] of 68600 ng·h/mL and a Cmax [8, 17] of 5450 ng/mL. For the same compound, the half-life [8, 17] was 8.36 h, the toxicological findings ([8]; mouse pivotal study, dose-dependent, reversible on cessation) was “bone marrow toxicity” and the MTD at 28 days ([8]; mouse, in vivo, po) was 75 mg/kg/day.

From patent US20200397796A1, “METHODS OF TREATMENT OF CANCER COMPRISING CHK1 INHIBITORS” (SIERRA ONCOLOGY, INC., priority 2018, published 2020)
